Source: patent publication US10675360B2 (MADRIGAL PHARMACEUTICALS, INC., priority 2014, dated 2020)

Experiment: Stability in mouse plasma
Format: in vitro ADME
Details: mouse plasma; 1 h, 37° C.

Row | SMILES | % Remaining
1 | CCc1c2c(nc3ccc(O)cc13)-c1cc3c(c(=O)n1C2)COC(=O)[C@@]3(CC)OC(=O)N1CCC(CCc2ccc(-n3c(O)nnc3-c3cc(C(C)C)c(O)cc3O)cc2)CC1 [SDC-TRAP-0104, (S)-4,11-diethyl-9-hydroxy-3,14-dioxo-3,4,12,14-tetrahydro-1H-pyrano[3′,4′:6,7]indolizino[1,2-b]quinolin-4-yl 4-(4-(3-(2,4-dihydroxy-5-isopropylphenyl)-5-hydroxy-4H-1,2,4-triazol-4-yl)phenethyl)piperidine-1-carboxylate] | 95.5%
2 | CCNC(=O)c1nnc(-c2cc(C(C)C)c(O)cc2O)n1-c1ccc(CN2CCC(C(=O)N3CCC(N(C)C(=O)Oc4ccc5nc6c(c(CC)c5c4)Cn4c-6cc5c(c4=O)COC(=O)C5(O)CC)CC3)CC2)cc1 (centres unmarked) [SDC-TRAP-0172, 4,11-diethyl-4-hydroxy-3,14-dioxo-3,4,12,14-tetrahydro-1H-pyrano[3′,4′:6,7]indolizino[1,2-b]quinolin-9-yl (1-(1-(4-(3-(2,4-dihydroxy-5-isopropylphenyl)-5-(ethylcarbamoyl)-4H-1,2,4-triazol-4-yl)benzyl)piperidine-4-carbonyl)piperidin-4-yl)(methyl)carbamate] | 74.7%
3 | CCc1c2c(nc3ccc(OC(=O)N4CCCCC4C(=O)N4CCC(CCn5ccc6cc(-n7c(O)nnc7-c7cc(C(C)C)c(O)cc7O)ccc65)CC4)cc13)-c1cc3c(c(=O)n1C2)COC(=O)[C@]3(O)CC (stereo partly drawn) [SDC-TRAP-0215, (S)-4,11-diethyl-4-hydroxy-3,14-dioxo-3,4,12,14-tetrahydro-1H-pyrano[3′,4′:6,7]indolizino[1,2-b]quinolin-9-yl 2-(4-(2-(5-(3-(2,4-dihydroxy-5-isopropylphenyl)-5-hydroxy-4H-1,2,4-triazol-4-yl)-1H-indol-1-yl)ethyl)piperidine-1-carbonyl)piperidine-1-carboxylate] | 77.2%
4 | CCc1c2c(nc3ccc(O)cc13)-c1cc3c(c(=O)n1C2)COC(=O)[C@@]3(CC)OC(=O)N1CCC(CCn2ccc3cc(-n4c(O)nnc4-c4cc(C(C)C)c(O)cc4O)ccc32)CC1 [SDC-TRAP-0064, (S)-4,11-diethyl-9-hydroxy-3,14-dioxo-3,4,12,14-tetrahydro-1H-pyrano[3′,4′:6,7]indolizino[1,2-b]quinolin-4-yl 4-(2-(5-(3-(2,4-dihydroxy-5-isopropylphenyl)-5-hydroxy-4H-1,2,4-triazol-4-yl)-1H-indol-1-yl)ethyl)piperidine-1-carboxylate] | 91.5%
5 | CCNC(=O)c1nnc(-c2cc(C(C)C)c(O)cc2O)n1-c1ccc2c(ccn2CCC2CCN(C(=O)Oc3ccc4nc5c(c(CC)c4c3)Cn3c-5cc4c(c3=O)COC(=O)[C@]4(O)CC)CC2)c1 [SDC-TRAP-0205, (S)-4,11-diethyl-4-hydroxy-3,14-dioxo-3,4,12,14-tetrahydro-1H-pyrano[3′,4′:6,7]indolizino[1,2-b]quinolin-9-yl 4-(2-(5-(3-(2,4-dihydroxy-5-isopropylphenyl)-5-(ethylcarbamoyl)-4H-1,2,4-triazol-4-yl)-1H-indol-1-yl)ethyl)piperidine-1-carboxylate] | 58.4%
6 | CCNC(=O)c1nnc(-c2cc(C(C)C)c(O)cc2O)n1-c1ccc(CN2CCC(C(=O)N3CCN(C(=O)Oc4ccc5nc6c(c(CC)c5c4)Cn4c-6cc5c(c4=O)COC(=O)C5(O)CC)C(C)C3)CC2)cc1 (centres unmarked) [SDC-TRAP-0185, 4,11-diethyl-4-hydroxy-3,14-dioxo-3,4,12,14-tetrahydro-1H-pyrano[3′,4′:6,7]indolizino[1,2-b]quinolin-9-yl 4-(1-(4-(3-(2,4-dihydroxy-5-isopropylphenyl)-5-(ethylcarbamoyl)-4H-1,2,4-triazol-4-yl)benzyl)piperidine-4-carbonyl)-2-methylpiperazine-1-carboxylate] | 68.1%
7 | CCNC(=O)c1nnc(-c2cc(C(C)C)c(O)cc2O)n1-c1ccc(C(=O)N2CCN(C(=O)COC(=O)OC3(CC)C(=O)OCc4c3cc3n(c4=O)Cc4c-3nc3ccc(O)cc3c4CC)CC2)cc1 (centres unmarked) [SDC-TRAP-0202, 4,11-diethyl-9-hydroxy-3,14-dioxo-3,4,12,14-tetrahydro-1H-pyrano[3′,4′:6,7]indolizino[1,2-b]quinolin-4-yl (2-(4-(4-(3-(2,4-dihydroxy-5-isopropylphenyl)-5-(ethylcarbamoyl)-4H-1,2,4-triazol-4-yl)benzoyl)piperazin-1-yl)-2-oxoethyl) carbonate] | 21.2%
8 | CCc1c2c(nc3ccc(O)cc13)-c1cc3c(c(=O)n1C2)COC(=O)C3(CC)OC(=O)N1CCN(Cc2ccc(-n3c(O)nnc3-c3cc(C(C)C)c(O)cc3O)cc2)CC1 (centres unmarked) [SDC-TRAP-0047, 4,11-diethyl-9-hydroxy-3,14-dioxo-3,4,12,14-tetrahydro-1H-pyrano[3′,4′:6,7]indolizino[1,2-b]quinolin-4-yl 4-(4-(3-(2,4-dihydroxy-5-isopropylphenyl)-5-hydroxy-4H-1,2,4-triazol-4-yl)benzyl)piperazine-1-carboxylate] | 89%
9 | CCc1c2c(nc3ccc(OC(=O)N4CCC(Cn5ccc6cc(-n7c(O)nnc7-c7cc(C(C)C)c(O)cc7O)ccc65)CC4)cc13)-c1cc3c(c(=O)n1C2)COC(=O)C3(O)CC (centres unmarked) [SDC-TRAP-0186] | 57.9%

Same assay, conditions: mouse, plasma, 1 h, 10 μM

Row | % Remaining | SMILES
10 | 112% | CCNC(=O)c1nnc(-c2cc(C(C)C)c(O)cc2O)n1-c1ccc(CN2CCC(C(=O)N3CCC(COC(=O)Nc4cccc5c4CN(C4CCC(=O)NC4=O)C5=O)CC3)CC2)cc1 (centres unmarked) [SDC-TRAP-0124, (1-(1-(4-(3-(2,4-Dihydroxy-5-isopropylphenyl)-5-(ethylcarbamoyl)-4H-1,2,4-triazol-4-yl)benzyl)piperidine-4-carbonyl)piperidin-4-yl)methyl (2-(2,6-dioxopiperidin-3-yl)-1-oxoisoindolin-4-yl)carbamate]
11 | 87.3% | CC(C)c1cc(-c2nnc(O)n2-c2ccc(CC(=O)N(C)CCOC(=O)Nc3cccc4c3CN(C3CCC(=O)NC3=O)C4=O)cc2)c(O)cc1O (centres unmarked) [SDC-TRAP-0127, 2-(2-(4-(3-(2,4-dihydroxy-5-isopropylphenyl)-5-hydroxy-4H-1,2,4-triazol-4-yl)phenyl)-N-methylacetamido)ethyl(2-(2,6-dioxopiperidin-3-yl)-1-oxoisoindolin-4-yl)carbamate]
12 | 85.9% | COc1cc(O)c(-c2nnc(C(=O)NC(C)C)n2-c2ccc(CN3CCC(C(=O)Nc4cccc5c4CN(C4CCC(=O)NC4=O)C5=O)CC3)cc2)cc1C(C)C (centres unmarked) [SDC-TRAP-0115, N-(2-(2,6-dioxopiperidin-3-yl)-1-oxoisoindolin-4-yl)-1-(4-(3-(2-hydroxy-5-isopropyl-4-methoxyphenyl)-5-(isopropylcarbamoyl)-4H-1,2,4-triazol-4-yl)benzyl)piperidine-4-carboxamide]
13 | 98.1% | CCNC(=O)c1nnc(-c2cc(C(C)C)c(O)cc2O)n1-c1ccc(C(=O)N(C)CC(=O)Nc2cccc3c2CN(C2CCC(=O)NC2=O)C3=O)cc1 (centres unmarked) [SDC-TRAP-0147, 5-(2,4-dihydroxy-5-isopropylphenyl)-4-(4-((2-((2-(2,6-dioxopiperidin-3-yl)-1-oxoisoindolin-4-yl)amino)-2-oxoethyl)(methyl)carbamoyl)phenyl)-N-ethyl-4H-1,2,4-triazole-3-carboxamide]
14 | 90.3% | CC(C)c1cc(-c2nnc(O)n2-c2ccc(N3CCN(C(=O)c4ccc(COC(=O)Nc5cccc6c5CN(C5CCC(=O)NC5=O)C6=O)cc4)CC3)cc2)c(O)cc1O (centres unmarked) [SDC-TRAP-0156, 4-(4-(4-(3-(2,4-Dihydroxy-5-isopropylphenyl)-5-hydroxy-4H-1,2,4-triazol-4-yl)phenyl)piperazine-1-carbonyl)benzyl (2-(2,6-dioxopiperidin-3-yl)-1-oxoisoindolin-4-yl)carbamate]
15 | 103% | CCc1c2c(nc3ccc(O)cc13)-c1cc3c(c(=O)n1C2)COC(=O)C3(CC)OC(=O)N(C)CCCCN1CCN(Cc2ccc(-n3c(O)nnc3-c3cc(C(C)C)c(O)cc3O)cc2)CC1 (centres unmarked) [SDC-TRAP-0055, 4,11-diethyl-9-hydroxy-3,14-dioxo-3,4,12,14-tetrahydro-1H-pyrano[3′,4′:6,7]indolizino[1,2-b]quinolin-4-yl (4-(4-(4-(3-(2,4-dihydroxy-5-isopropylphenyl)-5-hydroxy-4H-1,2,4-triazol-4-yl)benzyl)piperazin-1-yl)butyl)(methyl)carbamate]

Row | SMILES | % Remaining
16 | CCNC(=O)c1nnc(-c2cc(C(C)C)c(O)cc2O)n1-c1ccc2c(c1)CN(Cc1cc(OC)c(OC(=O)Nc3cccc4c3CN(C3CCC(=O)NC3=O)C4=O)c(OC)c1)C2 (centres unmarked) [SDC-TRAP-0196] | 66.2%
17 | CCNC(=O)c1nnc(-c2cc(C(C)C)c(O)cc2O)n1-c1ccc(OC2CCN(C(=O)Oc3c(C)cc(COC(=O)Nc4cccc5c4CN(C4CCC(=O)NC4=O)C5=O)cc3C)CC2)cc1 (centres unmarked) [SDC-TRAP-0187, 4-((((2-(2,6-dioxopiperidin-3-yl)-1-oxoisoindolin-4-yl)carbamoyl)oxy)methyl)-2,6-dimethylphenyl 4-(4-(3-(2,4-dihydroxy-5-isopropylphenyl)-5-(ethylcarbamoyl)-4H-1,2,4-triazol-4-yl)phenoxy)piperidine-1-carboxylate] | 102%
18 | CCNC(=O)c1nnc(-c2cc(C(C)C)c(O)cc2O)n1-c1ccc(CN2CCC(C(=O)N3CCN(c4cc(C)c(OC(=O)Nc5cccc6c5CN(C5CCC(=O)NC5=O)C6=O)c(C)c4)CC3)CC2)cc1 (centres unmarked) [SDC-TRAP-0195, 4-(4-(1-(4-(3-(2,4-dihydroxy-5-isopropylphenyl)-5-(ethylcarbamoyl)-4H-1,2,4-triazol-4-yl)benzyl)piperidine-4-carbonyl)piperazin-1-yl)-2,6-dimethylphenyl (2-(2,6-dioxopiperidin-3-yl)-1-oxoisoindolin-4-yl)carbamate] | 98.4%
19 | CCNC(=O)c1nnc(-c2cc(C(C)C)c(O)cc2O)n1-c1ccc(Oc2ccc(OC(=O)N(C)CCOC(=O)Nc3cccc4c3CN(C3CCC(=O)NC3=O)C4=O)cc2)cc1 (centres unmarked) | 51.2%
20 | CCNC(=O)c1nnc(-c2cc(C(C)C)c(O)cc2O)n1-c1ccc(C(=O)N2CCN(c3cc(C)c(OC(=O)Nc4cccc5c4CN(C4CCC(=O)NC4=O)C5=O)c(C)c3)CC2)cc1 (centres unmarked) [SDC-TRAP-0178, 4-(4-(4-(3-(2,4-dihydroxy-5-isopropylphenyl)-5-(ethylcarbamoyl)-4H-1,2,4-triazol-4-yl)benzoyl)piperazin-1-yl)-2,6-dimethylphenyl (2-(2,6-dioxopiperidin-3-yl)-1-oxoisoindolin-4-yl)carbamate] | 82.0%
